Seven compounds from US10689398B2, “OXA-Diazaspiro compounds having activity against pain” (ESTEVE PHARMACEUTICALS, S.A., priority 2015, dated 2020) can be followed below.

pKi: −log10 of the molar value.

Sequence of human σ1 receptor (Q99720 whole entry): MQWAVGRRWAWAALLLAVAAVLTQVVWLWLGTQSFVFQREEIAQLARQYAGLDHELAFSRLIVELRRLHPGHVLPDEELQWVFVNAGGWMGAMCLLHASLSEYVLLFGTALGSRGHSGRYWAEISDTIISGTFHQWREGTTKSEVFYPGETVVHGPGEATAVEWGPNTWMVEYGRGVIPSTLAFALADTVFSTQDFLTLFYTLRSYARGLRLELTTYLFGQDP

For the experiment, the target named is human σ1 receptor (Homo sapiens (Human), UniProt Q99720). The experiment can be described thus: Human σ1 receptor radioligand assay. The format is binding. The conditions noted are these: transfected HEK-293 membranes, [3H](+)-pentazocine radioligand. Here is the method:
Human σ1 Receptor Radioligand Assay
To investigate binding properties of test compounds to human σ1 receptor, transfected HEK-293 membranes and [^3H](+)-pentazocine (Perkin Elmer, NET-1056), as the radioligand, were used. The assay was carried out with 7 μg of membrane suspension, 5 nM of [^3H](+)-pentazocine in either absence or presence of either buffer or 10 μM Haloperidol for total and non-specific binding, respectively. Binding buffer contained Tris-HCl 50 mM at pH 8. Plates were incubated at 37° C. for 120 minutes. After the incubation period, the reaction mix was then transferred to MultiScreen HTS, FC plates (Millipore), filtered and plates were washed 3 times with ice-cold 10 mM Tris-HCL (pH7.4). Filters were dried and counted at approximately 40% efficiency in a MicroBeta scintillation counter (Perkin-Elmer) using EcoScint liquid scintillation cocktail
Consider `CCN1CC(C)(C)OC2(CCCN(CC(C)C)CC2)C1` (stereo not shown) [Example 89, 4-ethyl-9-isobutyl-2,2-dimethyl-1-oxa-4,9-diazaspiro[5.6]dodecane], for which the pKi is above 7.00. With `c1ccc(CCN2CC3(CN(Cc4ccccc4)CC4(CC4)O3)C2)cc1` [Example 90, 10-benzyl-7-phenethyl-4-oxa-7,10-diazadispiro[2.1.3.3]undecane], the pKi is above 7.00. The compound `O=C(c1ccccc1)N1CC2(CC2)OC2(CN(CCc3ccccc3)C2)C1` [Example 91, (7-Phenethyl-4-oxa-7,10-diazadispiro[2.1.3.3]undecan-10-yl)(phenyl)methanone] had a pKi of at most 6.30.

Regarding `CCN1C[C@]2(CCCN(Cc3ccccc3)CC2)OC2(CC2)C1=O` [Example 92, (R)-8-benzyl-13-ethyl-4-oxa-8,13-diazadispiro[2.1.6.3]tetradecan-14-one], the pKi is above 7.00.

`CCN1C[C@@]2(CCCN(Cc3ccccc3)CC2)OC2(CC2)C1=O` [Example 93, (S)-8-benzyl-13-ethyl-4-oxa-8,13-diazadispiro[2.1.6.3]tetradecan-14-one] showed a pKi above 7.00. Next, `CC1(C)CN(C(=O)c2ccccc2)C[C@]2(CCCN(CCc3ccccc3)CC2)O1` [Example 94, (R)-(2,2-dimethyl-9-phenethyl-1-oxa-4,9-diazaspiro[5.6]dodecan-4-yl)(phenyl)methanone]: above 6.30; `CC1(C)CN(C(=O)c2ccccc2)C[C@@]2(CCCN(CCc3ccccc3)CC2)O1` [Example 95, (S)-(2,2-dimethyl-9-phenethyl-1-oxa-4,9-diazaspiro[5.6]dodecan-4-yl)(phenyl)methanone]: above 6.30.

A word on the pKi: it is −log10 of the Ki, conventionally taken in molar units. A high value points to a small Ki.
